For 23 compounds, EC50 results are on record in patent publication US4510307A, “6-Quinazolinesulfonyl derivatives and process for preparation thereof” (Asahi Kasei Kogyo Kabushiki Kaisha, priority 1980, dated 1985).

This test deals with mesenteric artery. The test can be described thus: Relaxation of Mesenteric Artery (isolated rabbit mesenteric artery contracted with KCl). Conditions: Oryctolagus cuniculus, concentration for 50% relaxation, KCl 15~20 mM contraction, read-out: Relaxation of Mesenteric Artery ED50. As to the method: When, for example, 1-[4-(N-methyl-N-cyclohexylamino)-6-quinazolinesulfonyl]-4-(2-ethoxy-2-phenylethyl)piperazine was added and a complete relaxation was designated 100%, the concentration which could bring about a relaxation of 50%, i.e., ED50 was 0.8 μM.
After a home bred rabbit of a Japanese species weighing about 3 Kg was subjected to bloodletting, resulting in death and then to abdominal incision, the mesenteric artery was taken out, cut into helicoids of 2 mm×25 mm and suspended in a 20 ml organ bath filled with a Krebs-Henseleit solution into which a mixed gas of 95% by volume of O2 and 5% by volume of CO2 was introduced and one end of the artery was connected with an isometric transducer. When a load of 1.5 g was applied to the artery, the contraction and the relaxation of the artery was recorded as a weight on the transducer (a product of Nippon Koden K.K., Japan, "FD Pickup TB-912T"). The relaxation of the mesenteric artery was observed by adding the 6-quinazolinesulfonyl derivatives and their pharmaceutically acceptable acid addition salts to the mesenteric artery at the condition of about one half of the maxinum contraction with KCl at a KCl concentrantion of 15~20 mM. When the complete relaxation of the mesenteric artery was designated 100%, the concentration of the 6-quinazolinesulfonyl derivatives and their pharmaceutically acceptable acid addition salts which brought about a relaxation of 50% is shown in Table 6.

`CC(C)OC(CN1CCN(S(=O)(=O)c2ccc3ncnc(N(C)C4CCCCC4)c3c2)CC1)c1ccccc1` (centres unmarked) [Compound (27), 1-[4-(N-methyl-N-cyclohexylamino)-6-quinazolinesulfonyl]-4-(2-isopropoxy-2-phenylethyl)piperazine]: the EC50 worked out at 0.9 µM.
As for `CCOC(CN1CCN(S(=O)(=O)c2ccc3ncnc(NCc4ccccc4)c3c2)CC1)c1ccccc1` (centres unmarked) [Compound (17), 1-(4-benzylamino-6-quinazolinesulfonyl)-4-(2-ethoxy-2-phenylethyl)-4-(2-ethoxy-2-phenylethyl)piperazine], the EC50 was found to be 3.2 µM.
For the compound `CCOC(CN1CCN(S(=O)(=O)c2ccc3ncnc(N(C)C4CCCCCC4)c3c2)CC1)c1ccccc1` (centres unmarked) [Compound (20), 1-[4-(N-methyl-N-cycloheptylamino)-6-quinazolinesulfonyl]-4-(2-ethoxy-2-phenylethyl)piperazine], the EC50 stood at 3.7 µM.
Take `CCOC(CN1CCN(S(=O)(=O)c2ccc3ncnc(N(CC(C)C)C4CCCCC4)c3c2)CC1)c1ccccc1` (centres unmarked) [Compound (22), 1-[4-(N-isobutyl-N-cyclohexylamino)-6-quinazolinesulfonyl]-4-(2-ethoxy-2-phenylethyl)piperazine]: the EC50 was 2.5 µM.
With `NCCNS(=O)(=O)c1ccc2ncnc(N3CCCCC3)c2c1` [Compound (29), N-(2-aminoethyl)-4-piperidino-6-quinazolinesulfonamide], the EC50 was 33 µM.
With `CC(C)COC(CN1CCN(S(=O)(=O)c2ccc3ncnc(N(C)C4CCCCC4)c3c2)CC1)c1ccccc1` (centres unmarked) [Compound (28), 1-[4-(N-methyl-N-cyclohexylamino)-6-quinazolinesulfonyl]-4-(2-isobutoxy-2-phenylethyl)piperazine] the figure was 1.3 µM; with `COC(CN1CCN(S(=O)(=O)c2ccc3ncnc(N4CCCCC4)c3c2)CC1)c1ccccc1` (centres unmarked) [Compound (5), 1-(4-piperidino-6-quinazolinesulfonyl)-4-(2-methoxy-2-phenylethyl)-piperazine], 5.8 µM.
`CCOC(CN1CCN(S(=O)(=O)c2ccc3ncnc(N(CC)CC)c3c2)CC1)c1ccccc1` (centres unmarked) [Compound (3), 1-(4-diethylamino-6-quinazolinesulfonyl)-4-(2-ethoxy-2-phenylethyl)-piperazine]: the EC50 was determined as 5 µM.
For the compound `CCN(CC)c1ncnc2ccc(S(=O)(=O)NCCCCN)cc12` [Compound (36), N-(4-aminobutyl)-4-diethylamino-6-quinazolinesulfonamide], the EC50 was found to be 50 µM.
With `CC(C)OC(CN1CCN(S(=O)(=O)c2ccc3ncnc(N4CCCCC4)c3c2)CC1)c1ccccc1` (centres unmarked) [Compound (7), 1-(4-piperidino-6-quinazolinesulfonyl)-4-(2-isopropoxy-2-phenylethyl)-piperazine], the EC50 amounted to 2.2 µM.
As for `COC(CN1CCN(S(=O)(=O)c2ccc3ncnc(N(C)C4CCCCC4)c3c2)CC1)c1ccccc1` (centres unmarked) [Compound (26), 1-[4-(N-methyl-N-cyclohexylamino)-6-quinazolinesulfonyl]-4-(2-methoxy-2-phenylethyl)piperazine], the EC50 was 1.4 µM.
In the case of `CCOC(CN1CCN(S(=O)(=O)c2ccc3ncnc(Nc4ccccc4)c3c2)CC1)c1ccccc1` (centres unmarked) [Compound (16), 1-(4-anilino-6-quinazolinesulfonyl)-4-(2-ethoxy-2-phenylethyl)piperazine], the EC50 was found to be 2.7 µM.
For the compound `CCOC(CN1CCN(S(=O)(=O)c2ccc3ncnc(N)c3c2)CC1)c1ccccc1` (centres unmarked) [Compound (1), 1-(4-amino-6-quinazolinesulfonyl)-4-(2-ethoxy-2-phenylethyl)piperazine], the EC50 came out at 9.8 µM.
As for `CCCCCCN(CCCCCC)c1ncnc2ccc(S(=O)(=O)NCCCCN)cc12` [Compound (38), N-(4-aminobutyl)-4-dihexylamino-6-quinazolinesulfonamide], the EC50 was found to be 12 µM.
Take `NCCCNS(=O)(=O)c1ccc2ncnc(N3CCCCC3)c2c1` [Compound (30), N-(3-aminopropyl)-4-piperidino-6-quinazolinesulfonamide]: the EC50 came out at 30 µM.
`CC(C)COC(CN1CCN(S(=O)(=O)c2ccc3ncnc(N4CCCCC4)c3c2)CC1)c1ccccc1` (centres unmarked) [Compound (8), 1-(4-piperidino-6-quinazolinesulfonyl)-4-(2-isobutoxy-2-phenylethyl)-piperazine]: the EC50 is 10.7 µM.
Then `CCOC(CN1CCN(S(=O)(=O)c2ccc3ncnc(N(C)C4CCCC4)c3c2)CC1)c1ccccc1` (centres unmarked) [Compound (18), 1-[4-(N-methyl-N-cyclopentylamino)-6-quinazolinesulfonyl]-4-(2-ethoxy-2-phenylethyl)piperazine], with 1.4 µM; and `CN(C)c1ncnc2ccc(S(=O)(=O)NCCCCN)cc12` [Compound (35), N-(4-aminobutyl)-4-dimethylamino-6-quinazolinesulfonamide], with 54 µM; and `NCCCCNS(=O)(=O)c1ccc2ncnc(N3CCCC3)c2c1` [Compound (34), N-(4-aminobutyl)-4-(1-pyrrolidinyl)-6-quinazolinesulfonamide], with 27 µM.
With `CCOC(CN1CCN(S(=O)(=O)c2ccc3ncnc(N4CCOCC4)c3c2)CC1)c1ccccc1` (centres unmarked) [Compound (14), 1-(4-morpholino-6-quinazolinesulfonyl)-4-(2-ethoxy-2-phenylethyl)-piperazine], the EC50 is 9.5 µM.
With `CCOC(CN1CCN(S(=O)(=O)c2ccc3ncnc(NC4CCCCC4)c3c2)CC1)c1ccccc1` (centres unmarked) [Compound (15), 1-(4-cyclohexylamino-6-quinazolinesulfonyl)-4-(2-ethoxy-2-phenylethyl)-piperazine], the EC50 turned out to be 1.6 µM.
Turning to `CCOC(CN1CCN(S(=O)(=O)c2ccc3ncnc(N(C)C)c3c2)CC1)c1ccccc1` (centres unmarked) [Compound (2), 1-(4-dimethylamino-6-quinazolinesulfonyl)-4-(2-ethoxy-2-phenylethyl)-piperazine], the EC50 came to 4.5 µM.
As to `NCCCCCCCCCCNS(=O)(=O)c1ccc2ncnc(N3CCCCC3)c2c1` [Compound (33), N-(10-aminodecyl)-4-piperidino-6-quinazolinesulfonamide], the EC50 was 34 µM.
